# Measured values: PubChem BioAssay (NCI)
# Where “and” joins values, the source holds several entries; their conditions need not be identical. Identical values can stand only once.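 Method: 48-hour compound exposure of cells in 96-well plates, five concentrations, linear interpolation of endpoints. GI50 is the concentration that inhibits growth by half. TGI marks complete inhibition of growth.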
# Assays:
# Test in all cases: NCI-60 cell line screen, 48 h
# [1] = tested on: EKVX NSCLC
# [2] = tested on: HCT-116 colon
# [3] = tested on: HOP-62 NSCLC
# [4] = tested on: MDA-MB-435
# [5] = tested on: OVCAR-4 ovarian
# [6] = tested on: OVCAR-5 ovarian
# [7] = tested on: OVCAR-8 ovarian
# [8] = tested on: RPMI-8226 leukemia
# [9] = tested on: SF-295 CNS
# [10] = tested on: T-47D breast
Compound,GI50 [1] [µM],TGI [1] [µM],GI50 [2],TGI [2] [µM],GI50 [3],TGI [3] [µM],GI50 [4],TGI [4] [µM],GI50 [5] [µM],TGI [5] [µM],GI50 [6],TGI [6] [µM],GI50 [7] [µM],TGI [7] [µM],GI50 [8],TGI [8] [µM],GI50 [9],TGI [9] [µM],GI50 [10],TGI [10] [µM]
COC(=O)/C=C/C=C(c1ccccc1)c1ccccc1,4.06,32.8,3.68 µM,18.9,4.14 µM,40.9,1.63 µM,4.37,8.59,> 100,14 µM,> 100,15,> 100,6.36 µM,95.5,2.76 µM,8.12,3.16 µM,> 100
O=C(c1ccccc1)C1N=NCC1c1ccc([N+](=O)[O-])cc1 (centres undefined),–,> 100,–,> 100,–,> 100,–,> 100,–,> 100,–,> 100,–,> 100,–,> 100,–,> 100,–,30.9
CNC(=O)n1ccc2cc(Oc3ccnc(NC(=O)c4ccc(C5CCN(CCO)CC5)cc4)c3)c(OCCOC)cc21,14.7,29.3,2.63 µM,11.9,4.56 µM,18.6,3.2 µM,11.8,1.99,5.78,8.43 µM,22.7,4.51,19.5,2 µM,6.58,8.54 µM,21,11.8 µM,36
CCN(CC)c1ccc(C(=C2C=CC(=[N+](CC)Cc3cccc(S(=O)(=O)O)c3)C=C2)c2ccc(N(CC)Cc3cccc(S(=O)(=O)O)c3)cc2)cc1,6.82,> 100,3.18 µM,19.7,4.59 µM,> 96.6,4.07 µM,> 100,8.71,> 100,20.8 µM,> 100,4.8,> 100,3.32 µM,> 51.1,2.81 µM,> 47,3.14 µM,> 29.3
CC/C=C\C=C/C(=O)N/C=C/CC1Cc2cccc(O)c2C(=O)O1 (centres undefined),38.8,> 100,19.1 µM,42.2,14.5 µM,50.5,3 µM,10.7,44.4,> 100,32.5 µM,99.4,30,> 100,22.2 µM,56.4,33.1 µM,> 100,36.1 µM,> 100
COc1cc(C2c3cc4c(cc3OC(N3CCCC3)C2C)OCO4)cc(OC)c1OC (centres undefined),–,> 95.5,–,27.7,–,22.5,–,1.84,–,80.1,–,> 47.9,–,9.82,–,> 19.9,–,2.55,–,> 100
CC(C)NC[C@@H](C(=O)N1CCN(c2ncnc3c2[C@H](C)C[C@H]3O)CC1)c1ccc(Cl)cc1,> 10,> 10,> 10 µM and 23.8 µM,> 100,> 10 µM and 11.9 µM,> 100,> 10 µM and 20.9 µM,> 100,> 74,> 100,> 10 µM and 29.8 µM,> 100,> 100,> 100,> 10 µM and 38.1 µM,> 100,0.68 µM and 0.47 µM,> 75.1,0.208 µM and 0.236 µM,–
Cc1occc1C(=S)Nc1ccc(Cl)c(COC(C)(C)C)c1,–,37.1,–,32.1,–,44.9,–,30.7,–,33.1,–,50.6,–,31.5,–,50.5,–,27.9,–,26.9
Cc1c(C(=O)/C=C/c2csc3ccccc23)[n+](=O)c2ccccc2n1[O-],1.32,3.64,1.37 µM,2.65,1.41 µM,2.8,1.73 µM,3.26,1.98,4.83,1.47 µM,2.94,2.37,6.31,1.78 µM,4.91,1.94 µM,4.83,1.92 µM,5.81
O=C(c1ccc(F)cc1)c1cccc(C(=O)c2ccc(F)cc2)n1,–,> 100,–,81.8,–,48.6,–,> 100,–,> 100,–,> 100,–,> 100,–,> 100,–,39.3,–,> 100
N#Cc1cnc2cc(OC[C@H](O)CO)c(NC(=O)CC3CSSC3)cc2c1Nc1ccc(OCc2cccc(F)c2)c(Cl)c1,0.696,1.67,0.0977 µM,0.208,0.895 µM,1.81,0.272 µM,0.878,0.619,1.57,0.872 µM,1.89,1.02,2.28,1.09 µM,2.49,0.83 µM,1.6,0.575 µM,1.47
CCN(CC)S(=O)(=O)c1ccc(OC)c(Nc2ncc(-c3ccccc3)o2)c1,> 25,> 25,> 17.9 µM,> 25,> 20.1 µM,> 25,> 25 µM,> 25,5.57,> 25,> 21.7 µM,> 25,> 25,> 25,> 25 µM,> 25,> 16.5 µM,> 25,> 11 µM,24.4
CC(C)(C)C[C@H]1NC(C(=O)NCC[C@H](O)CO)[C@H](c2cccc(Cl)c2)[C@@]12C(=O)Nc1cc(Cl)c(F)cc12 (some centres undefined),13.3,29.1,3.07 µM,16.3,15.5 µM,29.7,14.1 µM,29.6,14.8,32.4,15.5 µM,31.8,18.6,39.1,12.8 µM,38.4,13.4 µM,28.1,16.7 µM,37.7
C=CCc1c2c(c(OC)c3ccoc13)C(=O)/C(=C/c1ccccc1OC)O2,4.41,> 100,3.29 µM,> 100,4.98 µM,46.3,3.12 µM,> 100,3.34,> 100,3.57 µM,> 100,3.87,> 100,3.51 µM,> 100,3.67 µM,> 100,4.34 µM,> 100
